The IC50 is the point on the concentration scale where inhibition reaches its midpoint. Low values mean greater potency, high ones weaker potency.

One test deals with L1210. Put plainly: The compound was tested for cytotoxic activity using standard L1210 cell based cytotoxicity assay. It is filed as functional. Conditions: Mus musculus.
The subject of another test is Nucleic Acid. The test is described as follows: Compound was evaluated for DNA (poly[dA]-poly[dT]) binding affinity. Type of test: nucleic-acid assay.

The compound `CC(C)(C)OC(=O)Nc1ccc2c(c1)cc1c(=O)n3c(cc4cc(NC(=O)OC(C)(C)C)ccc43)c(=O)n12` yielded an IC50 with L1210 of 29 µM. Still for that read-out and setting: the result for `Nc1ccc2c(c1)cc1c(=O)n3c(cc4cc(N)ccc43)c(=O)n12` reads 30 µM; that for `CN(C)CCCC(=O)Nc1csc(C(=O)Nc2ccc3c(c2)cc2c(=O)n4c(cc5cc(NC(=O)c6csc(NC(=O)CCCN(C)C)n6)ccc54)c(=O)n23)n1`, 4 µM. With `CN(C)CCCC(=O)Nc1ccc2c(c1)cc1c(=O)n3c(cc4cc(NC(=O)CCCN(C)C)ccc43)c(=O)n12`, in the test with L1210, 0.034 µM corresponded to half-maximal inhibition (IC50). In addition, in the test on Nucleic Acid, the K came to 203000. With `CN(C)CCCC(=O)Nc1ccc(C(=O)Nc2ccc3c(c2)cc2c(=O)n4c(cc5cc(NC(=O)c6ccc(NC(=O)CCCN(C)C)cc6)ccc54)c(=O)n23)cc1`, in the test on L1210, the midpoint of inhibition, the IC50, lay at 7 µM.

The record behind these values is ChEMBL document CHEMBL1132868, “A new class of highly cytotoxic diketopiperazines” (Bioorg Med Chem Lett, 2000).
